Measurements taken from paper PMC4858447 (ACS chemical biology, 2015).
Like-named read-outs stand apart in the source and are kept apart here.

Assays:
5FW-BPTF bromodomain = 5FW-BPTF bromodomain (Homo sapiens, UniProt Q12830); assay: Protein-observed 19F NMR; assay type: binding; conditions: for BPTF 19F NMR: 100 μM compound, 50 μM Brd4 and BPTF, 1% DMSO; for selectivity between BPTF and Brd4 by PrOF NMR (in words): dual screen
[1] = read-out: EC50 in five cellular assays; ChEMBL search; targets unknown; cited from earlier work
[2] = target: 5FW-Brd4 (first bromodomain of Brd4) (Homo sapiens, UniProt O60885); assay: Protein-observed 19F NMR; assay type: binding; conditions: for Brd4 19F NMR: 100 μM compound, 50 μM Brd4 and BPTF, 1% DMSO; for binding to Brd4 (in words): PrOF NMR
[3] = test system: BPTF-regulatory region upstream of Mobkl3 promoter in Eph4 cells; assay: pGL3_Mobkl3p luciferase reporter assay; assay type: cell-based, mouse; conditions: 5 μM for 12 hours, pGL3_Mobkl3p vector
hepatocytes = conditions: 10 μM compound; cited from earlier work
HEK 293T cells = assay: Cell viability assay; assay type: cell-based, human; conditions: 24 hours at 3 and 10 μM
Cell viability assay = assay type: cell-based, human; conditions: human, HEK 293T cells
Brd4 [4] = target: T1, Brd4 (Homo sapiens, UniProt O60885); assay: Fluorescence anisotropy competition against bound BODIPY-BI2536; assay type: binding
Brd4 [5] = target: T1, Brd4; assay: Differential scanning fluorimetry; assay type: binding; conditions: DSF, 100 μM inhibitor, 4 μM Brd4

Row | Structure (SMILES) | BPTF 19F NMR (5FW-BPTF bromodomain) | Brd4 19F NMR [2] | selectivity between BPTF and Brd4 by PrOF NMR (in words) (5FW-BPTF bromodomain) | further results
1 | COC(=O)c1cccc(NC(=O)NC2CCN(c3ccnc(Nc4ccc(F)cc4)n3)C2)c1 (stereo not drawn) [AU1] | +++ | - |  | EC50 [1]: 500 nM; binding to Brd4 (in words) [2]: No binding is detected; loss of luciferase activity [3]: ~ 4 fold; cellular toxicity in hepatocytes (hepatocytes): did not detect cellular toxicity; cellular toxicity against HEK 293T cells (HEK 293T cells): no cellular toxicity; viability at 48 h, 10 µM (Cell viability assay): 76%
2 | CCn1c(-c2nonc2N)nc2c(-c3ccccc3)ncc(OCCCN)c21 [GSK260205A] | +++ | +++ |  | 
3 | CCn1c(-c2nonc2N)nc2c(C#CCN)ncc(OCCCN)c21 [GSK561866B] | ++ (a resonance from the protein in question has been perturbed by 2 standard deviations in either chemical shift or linewidth) | - | highly selective for BPTF | 
4 | O=C(Nc1ccc2c(c1)OCO2)NC1CCN(c2ccnc(Nc3ccc(F)cc3)n2)C1 (stereo not drawn) [GSK1379724A] |  |  |  | binding to BPTF (in words) (5FW-BPTF bromodomain; PrOF NMR): unable to bind; binding to Brd4 (in words) [2]: unable to bind
5 | COC(=O)c1cccc(NC(=O)NC2CCN(c3ccnc(Nc4ccc(OC)cc4)n3)C2)c1 (stereo not drawn) [GSK1379746A] | +++ | - | completely selective for BPTF over Brd4 | 
6 | COC(=O)c1cccc(NC(=O)NC2CCN(c3ccnc(Nc4cc(OC)c(OC)c(OC)c4)n3)C2)c1 (stereo not drawn) [GSK1379767A] | +++ | +++ |  | 
7 | Oc1ccc(-c2nc(-c3ccncc3)c(-c3ccc(F)cc3)[nH]2)cc1 [SB-202190, reference compound] |  |  | selective for Brd4 over BPTF | 
8 | CCc1ccc(Oc2nccc(-c3c(-c4ccc(F)cc4)ncn3C3CCNCC3)n2)cc1 [SB-242719] | + (a resonance from the protein in question has been perturbed by 1 standard deviation in either chemical shift or linewidth) | +++ |  | Ki (Brd4 [4]): 13000 ± 3000 nM; fold weaker affinity (Brd4 [4]; relative to SB-284851-BT (1)): 40 fold
9 | CN(C)CCOc1ccc(-c2nc(-c3ccncc3)c(-c3ccc4c(c3)CC/C4=N\O)[nH]2)cc1 [SB-590885-AAE] | - | +++ |  | Brd4 ΔTm (Brd4 [5]): 5.1 ± 0.4 °C; Ki (Brd4 [4]; read-out: Brd4 FP Ki, competition with BODIPY-BI2536, 156 nM Brd4): 400 ± 230 nM
10 | Cc1cnc(Nc2ccc(OCCN3CCCC3)cc2)nc1Nc1cccc(S(=O)(=O)NC(C)(C)C)c1 [TG-101348, reference compound] |  |  | selective for Brd4 over BPTF | 
